The IC50 is the concentration that inhibits the measured activity by half. High values mean a need for much substance, low ones inhibition by little substance.

Data on 7 compounds can be found in patent US7612064B2, “Sulfopyrroles” (Takeda Pharmaceutical Company Limited, priority 2003, dated 2009).

For assay [1], the system named is MRC5. The assay is described as follows: MTS proliferation assay. The assay is classed as cell-based. As to conditions: MRC5, 72 h. In outline:
(§1)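 Cells exposed 72 h under culture conditions to compound at 10, 3, 1 and 0.3 μM final, added in medium with max 5% DMSO. MTS reagent then added for a further 3 h and absorbance read at 492 nm.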

Assay [2] relates to Jurkat. Kind of assay: MTS proliferation assay. In kind it is cell-based, human. As to conditions: 72 h. In outline: as §1
(In general: Tetrazolium assays rely on reduction of a dye to a coloured formazan, in cell work by metabolically active cells.)

Assay [3] has as its system HeLa. Kind of assay: MTS proliferation assay. The note with it: 72 h. The assay is classed as cell-based, human. In outline:
as §1

Assay [4] can be described thus: Hoechst 33342 nuclear staining.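 For all read-outs here: apoptotic nuclei scored 0 none 1 weak under 50% of cells 2 strong over 50% of cells.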 In kind it is cell-based. The note with it: for Hoechst 33342 nuclear staining score, H460: H460 cells; for Hoechst 33342 nuclear staining score, HeLa: HeLa cells; for Hoechst 33342 nuclear staining score, Jily: Jily cells; for Hoechst 33342 nuclear staining score, Jurkat: Jurkat cells; for Hoechst 33342 nuclear staining score, MRC5: MRC5 cells. In outline: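 After a further 30 min incubation, plates were inspected on a standard inverted fluorescence microscope. The fraction of apoptotic nuclei and other apoptosis-specific morphology were scored as 0 for no activity, 1 for weak activity in less than 50% of the cells, and 2 for strong activity in more than 50% of the cells.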

Where [5] appears, read: conc 0.1 (final concentrations in μM), 24 h or 48 h incubation.
Where [6] appears, read: conc 0.3 (final concentrations in μM), 24 h or 48 h incubation.
Where [7] appears, read: conc 1 (final concentrations in μM), 24 h or 48 h incubation.
The mark [8] stands for this setting: conc 3 (final concentrations in μM), 24 h or 48 h incubation.

Consider `Cc1ccc(S(=O)(=O)n2cc(-c3ccc(C#N)cc3)cc2-c2cccs2)cc1` [Example 54], for which the IC50 in assay [1] was more than 1000 nM. This compound showed an IC50 in assay [2] of less than 1000 nM. The same compound had an IC50 in assay [3] of more than 1000 nM. Moreover, in assay [4] (setting [5]), the “Hoechst 33342 nuclear staining score, H460” value is given as 0; the “Hoechst 33342 nuclear staining score, HeLa” value is 0; the “Hoechst 33342 nuclear staining score, Jily” value is reported as 0; the “Hoechst 33342 nuclear staining score, Jurkat” value was determined as 0. Besides, in assay [4] (setting [5]), the “Hoechst 33342 nuclear staining score, MRC5” value turned out to be 0 and the “Hoechst 33342 nuclear staining score, PBLs” value is on record as 0. Further, in assay [4] (setting [6]), the “Hoechst 33342 nuclear staining score, H460” value was 0; the “Hoechst 33342 nuclear staining score, HeLa” value is on record as 0; the “Hoechst 33342 nuclear staining score, Jily” value is listed as 0; the “Hoechst 33342 nuclear staining score, Jurkat” value amounted to 0. Besides, in assay [4] (setting [6]), the “Hoechst 33342 nuclear staining score, MRC5” value is listed as 0 and the “Hoechst 33342 nuclear staining score, PBLs” value is reported as 0. In addition, in assay [4] (setting [7]), the “Hoechst 33342 nuclear staining score, H460” value is 0; the “Hoechst 33342 nuclear staining score, HeLa” value is recorded as 0; the “Hoechst 33342 nuclear staining score, Jily” value is recorded as 0; the “Hoechst 33342 nuclear staining score, Jurkat” value was determined as 0. In addition, in assay [4] (setting [7]), the “Hoechst 33342 nuclear staining score, MRC5” value was determined as 0 and the “Hoechst 33342 nuclear staining score, PBLs” value was determined as 0. In assay [4] (setting [8]), the “Hoechst 33342 nuclear staining score, H460” value is reported as 0; the “Hoechst 33342 nuclear staining score, HeLa” value was 0; the “Hoechst 33342 nuclear staining score, Jily” value is on record as 0; the “Hoechst 33342 nuclear staining score, Jurkat” value is reported as 0. For the same compound, in assay [4] (setting [8]), the “Hoechst 33342 nuclear staining score, MRC5” value is given as 0 and the “Hoechst 33342 nuclear staining score, PBLs” value worked out at 0.
For the compound `CCN1CCCC1CNCc1cc(-c2ccc3c(c2)OCO3)n(S(=O)(=O)c2ccc(C)cc2)c1` (stereo not shown) [Example 21], the half-inhibitory concentration (IC50) in assay [1], in assay [2] and in assay [3] was more than 1000 nM each time. In addition, the “Hoechst 33342 nuclear staining score, HeLa” value in assay [4] (setting [5]), in assay [4] (setting [6]), in assay [4] (setting [7]) and in assay [4] (setting [8]) was 0 throughout. Also, the “Hoechst 33342 nuclear staining score, Jurkat” value in assay [4] (setting [5]), in assay [4] (setting [6]), in assay [4] (setting [7]) and in assay [4] (setting [8]) was 0 throughout.
Take `Cc1ccc(S(=O)(=O)n2cc(CN(C)C3CCN(Cc4ccccc4)C3)cc2-c2ccc3c(c2)OCO3)cc1` (stereo not shown) [Example 25]: the IC50 in assay [1], in assay [2] and in assay [3] was more than 1000 nM in each case. Further, the “Hoechst 33342 nuclear staining score, HeLa” value is 0 in assay [4] (setting [5]), 0 in assay [4] (setting [6]), 0 in assay [4] (setting [7]) and 1 (weak activity comprising less than 50% of the cells) in assay [4] (setting [8]). Further, the “Hoechst 33342 nuclear staining score, Jurkat” value in assay [4] (setting [5]), in assay [4] (setting [6]), in assay [4] (setting [7]) and in assay [4] (setting [8]) was 0 each time.
Consider `Cc1ccc(S(=O)(=O)n2cc(-c3cccnc3)cc2-c2ccc3c(c2)OCO3)cc1` [Example 49], for which the half-inhibitory concentration (IC50) in assay [1], in assay [2] and in assay [3] was more than 1000 nM in each case. Further, the “Hoechst 33342 nuclear staining score, HeLa” value in assay [4] (setting [5]), in assay [4] (setting [6]), in assay [4] (setting [7]) and in assay [4] (setting [8]) was 0 in each case. Also, the “Hoechst 33342 nuclear staining score, Jurkat” value in assay [4] (setting [5]), in assay [4] (setting [6]), in assay [4] (setting [7]) and in assay [4] (setting [8]) was 0 in each case.
On to `Cc1ccc(S(=O)(=O)n2cc(CN(C)CCN(C)C)cc2-c2ccc3c(c2)OCO3)cc1` [Example 31], for which the IC50 in assay [1], in assay [2] and in assay [3] was more than 1000 nM each time. Further, the “Hoechst 33342 nuclear staining score, HeLa” value in assay [4] (setting [5]), in assay [4] (setting [6]), in assay [4] (setting [7]) and in assay [4] (setting [8]) was 0 in each case. The “Hoechst 33342 nuclear staining score, Jurkat” value in assay [4] (setting [5]), in assay [4] (setting [6]), in assay [4] (setting [7]) and in assay [4] (setting [8]) was 0 each time.
On to `Cc1ccc(S(=O)(=O)n2cc(-c3ccc(C(N)=O)cc3)cc2-c2cccs2)cc1` [Example 52], for which the IC50 in assay [1], in assay [2] and in assay [3] was more than 1000 nM in each case. Besides, the “Hoechst 33342 nuclear staining score, HeLa” value in assay [4] (setting [5]), in assay [4] (setting [6]), in assay [4] (setting [7]) and in assay [4] (setting [8]) was 0 each time. Moreover, the “Hoechst 33342 nuclear staining score, Jurkat” value in assay [4] (setting [5]), in assay [4] (setting [6]), in assay [4] (setting [7]) and in assay [4] (setting [8]) was 0 each time.
`COc1cc(-c2cc(CNc3ccc(N4CCOCC4)cc3)cn2S(=O)(=O)c2ccc(C)cc2)cc(OC)c1OC` [Example 71]: in assay [1], the concentration for half-maximal inhibition (IC50) was less than 1000 nM. For the same compound, the IC50 in assay [2] was less than 1000 nM. The compound also had a 50% inhibitory concentration (IC50) in assay [3] of less than 1000 nM. In assay [4] (conc 0.1), the “Hoechst 33342 nuclear staining score, H460” value is 0; the “Hoechst 33342 nuclear staining score, HeLa” value is 0; the “Hoechst 33342 nuclear staining score, Jily” value worked out at 0; the “Hoechst 33342 nuclear staining score, Jurkat” value is on record as 0. Besides, in assay [4] (conc 0.1), the “Hoechst 33342 nuclear staining score, MRC5” value amounted to 0 and the “Hoechst 33342 nuclear staining score, PBLs” value was determined as 0. For the same compound, in assay [4] (conc 0.3), the “Hoechst 33342 nuclear staining score, H460” value came out at 0; the “Hoechst 33342 nuclear staining score, HeLa” value was 0; the “Hoechst 33342 nuclear staining score, Jily” value turned out to be 0; the “Hoechst 33342 nuclear staining score, Jurkat” value was 2 (strong activity comprising more than 50% of the cells). In assay [4] (conc 0.3), the “Hoechst 33342 nuclear staining score, MRC5” value was found to be 0 and the “Hoechst 33342 nuclear staining score, PBLs” value amounted to 0. In assay [4] (conc 1), the “Hoechst 33342 nuclear staining score, H460” value was 2 (strong activity comprising more than 50% of the cells); the “Hoechst 33342 nuclear staining score, HeLa” value is 2 (strong activity comprising more than 50% of the cells); the “Hoechst 33342 nuclear staining score, Jily” value is recorded as 2 (strong activity comprising more than 50% of the cells); the “Hoechst 33342 nuclear staining score, Jurkat” value is on record as 2 (strong activity comprising more than 50% of the cells). In addition, in assay [4] (conc 1), the “Hoechst 33342 nuclear staining score, MRC5” value is reported as 2 (strong activity comprising more than 50% of the cells) and the “Hoechst 33342 nuclear staining score, PBLs” value amounted to 0. For the same compound, in assay [4] (conc 3), the “Hoechst 33342 nuclear staining score, H460” value is reported as 2 (strong activity comprising more than 50% of the cells); the “Hoechst 33342 nuclear staining score, HeLa” value is 2 (strong activity comprising more than 50% of the cells); the “Hoechst 33342 nuclear staining score, Jily” value was 2 (strong activity comprising more than 50% of the cells); the “Hoechst 33342 nuclear staining score, Jurkat” value is given as 2 (strong activity comprising more than 50% of the cells). In addition, in assay [4] (conc 3), the “Hoechst 33342 nuclear staining score, MRC5” value is on record as 2 (strong activity comprising more than 50% of the cells) and the “Hoechst 33342 nuclear staining score, PBLs” value was 0.
